Consider 32 compounds from patent US7759486B2, “2,4,5-Trisubstituted pyrimidine compounds” (GlaxoSmithKline LLC, priority 2000, dated 2010).

Each structure is given as a SMILES string.

Compound `Cc1cc(F)ccc1-c1nc(O)nc2c1ccc(=O)n2-c1ccccc1F` (hydrate or solvate) [Example 144, 2-Hydroxy-4-(4-fluoro-2-methylphenyl)-8-(2-fluorophenyl)-8H-pyrido[2,3-d]pyrimidin-7-one] showed a melting point greater than 280 °C.
Under `CSCCCOc1nc(-c2ccc(F)cc2C)c2ccc(=O)n(-c3c(F)cccc3F)c2n1` [Example 127, 8-(2,6-Difluorophenyl)-4-(4-fluoro-2-methylphenyl)-2-(3-methylsulfanylpropoxy)-8H-pyrido[2,3-d]pyrimidin-7-one] stands 127 to 128 °C.
With `Cc1cc(F)ccc1-c1nc(OCCCS(C)(=O)=O)nc2c1ccc(=O)n2-c1c(F)cccc1F` [Example 128, 8-(2,6-Difluorophenyl)-4-(4-fluoro-2-methylphenyl)-2-(3-methanesulfonylpropoxy)-8H-pyrido[2,3-d]pyrimidin-7-one], the melting point was 160 to 162 °C.
`Cc1cc(F)ccc1-c1nc(OCCNC(=O)OC(C)(C)C)nc2c1ccc(=O)n2-c1c(F)cccc1F` [Example 130, 8-(2,6-Difluorophenyl)-4-(4-fluoro-2-methylphenyl)-2-[2-(tert-butoxycarbonylamino)ethoxy]-8H-pyrido[2,3-d]pyrimidin-7-one] yielded a melting point of 103 to 105 °C.
Under `Cc1cc(F)ccc1-c1nc(OCCN)nc2c1ccc(=O)n2-c1c(F)cccc1F` [Example 131, 8-(2,6-Difluorophenyl)-4-(4-fluoro-2-methylphenyl)-2-(2-aminoethoxy)-8H-pyrido[2,3-d]pyrimidin-7-one] stands 96 to 99 °C.
`CC(=O)NCCOc1nc(-c2ccc(F)cc2C)c2ccc(=O)n(-c3c(F)cccc3F)c2n1` [Example 132, 8-(2,6-Difluorophenyl)-4-(4-fluoro-2-methylphenyl)-2-(2-acetylaminoethoxy)-8H-pyrido[2,3-d]pyrimidin-7-one] displayed a melting point of 75 to 79 °C.
The compound `Cc1cc(F)ccc1-c1nc(OCC(CO)CO)nc2c1ccc(=O)n2-c1c(F)cccc1F` [Example 133, 8-(2,6-Difluorophenyl)-4-(4-fluoro-2-methylphenyl)-2-(3-hydroxy-2-hydroxymethylpropoxy)-8H-pyrido[2,3-d]pyrimidin-7-one] registered a melting point of 77 to 81 °C.
Under `Cc1cc(F)ccc1-c1nc(OCCNS(C)(=O)=O)nc2c1ccc(=O)n2-c1c(F)cccc1F` [Example 134, 8-(2,6-Difluorophenyl)-4-(4-fluoro-2-methylphenyl)-2-(2-methanesulfonyl-aminoethoxy)-8H-pyrido[2,3-d]pyrimidin-7-one] stands 95 to 99 °C; under `Cc1cc(F)ccc1-c1nc(OCCN(C)S(C)(=O)=O)nc2c1ccc(=O)n2-c1c(F)cccc1F` [Example 135, 8-(2,6-Difluorophenyl)-4-(4-fluoro-2-methylphenyl)-2-(2-N-methanesulfonyl-N-methylaminoethoxy)-8H-pyrido[2,3-d]pyrimidin-7-one], 89 to 92 °C; under `Cc1cc(F)ccc1-c1nc(NCCO)nc2c1ccc(=O)n2-c1ccccc1F` [Example 136, 4-(4-fluoro-2-methylphenyl)-8-(2-fluorophenyl)-2-(2-hydroxylethylamino)-5H-pyrido[2,3-d]pyrimidin-7-one], 120 to 124 °C.
Regarding `Cc1cc(F)ccc1-c1nc(N[C@@H](C)CO)nc2c1ccc(=O)n2-c1c(F)cccc1F` [Example 137, (S)-4-(4-fluoro-2-methylphenyl)-8-(2,6-difluorophenyl)-2-[(1-hydroxyprop-2-yl)amino]-8H-pyrido[2,3-d]pyrimidin-7-one], the melting point lay in the range of 96 to 101 °C.
Under `Cc1cc(F)ccc1-c1nc(N[C@H](C)CO)nc2c1ccc(=O)n2-c1c(F)cccc1F` [Example 138, (R)-4-(4-fluoro-2-methylphenyl)-8-(2,6-difluorophenyl)-2-[(1-hydroxyprop-2-yl)amino]-8H-pyrido[2,3-d]pyrimidin-7-one] stands 90 to 95 °C; under `Cc1cc(F)ccc1-c1nc(NC(C)(C)CO)nc2c1ccc(=O)n2-c1c(F)cccc1F` [Example 139, 4-(4-fluoro-2-methylphenyl)-8-(2,6-difluorophenyl)-2-(1,1-dimethyl-2-hydroxyethylamino)-8H-pyrido[2,3-d]pyrimidin-7-one], 99 to 105 °C.
Under `CCNc1nc(-c2ccc(F)cc2C)c2ccc(=O)n(-c3ccccc3F)c2n1` [Example 140, 2-Ethylamino-4-(4-fluoro-2-methylphenyl)-8-(2-fluorophenyl)-8H-pyrido[2,3-d]pyrimidin-7-one] stands 176 to 177 °C.
Under `Cc1cc(F)ccc1-c1nc(N[C@@H](C)CO)nc2c1ccc(=O)n2-c1ccccc1F` [Example 141, (S)-4-(4-fluoro-2-methylphenyl)-8-(2-fluorophenyl)-2-[(1-hydroxyprop-2-yl)amino]-8H-pyrido[2,3-d]pyrimidin-7-one] stands 114 to 120 °C.
As for `Cc1cc(F)ccc1-c1nc(N[C@H](C)CO)nc2c1ccc(=O)n2-c1ccccc1F` [Example 142, (R)-4-(4-fluoro-2-methylphenyl)-8-(2-fluorophenyl)-2-[(1-hydroxyprop-2-yl)amino]-8H-pyrido[2,3-d]pyrimidin-7-one], the melting point was 116 to 122 °C.
On to `Cc1cc(F)ccc1-c1nc(NC(C)(C)CO)nc2c1ccc(=O)n2-c1ccccc1F` [Example 143, 2-(1,1-dimethyl-2-hydroxyethylamino)-4-(4-fluoro-2-methylphenyl)-8-(2 fluorophenyl)-8H-pyrido[2,3-d]pyrimidin-7-one], for which the melting point lay in the range of 106 to 112 °C.
Under `Cc1cc(F)ccc1-c1nc(NC2CCCCC2)nc2c1ccc(=O)n2-c1ccccc1F` [Example 145, 2-Cyclohexylamino-4-(4-fluoro-2-methylphenyl)-8-(2-fluorophenyl)-5H-pyrido[2,3-d]pyrimidin-7-one] stands 181 to 182 °C.
With `Cc1cc(F)ccc1-c1nc(NC2CCOCC2)nc2c1ccc(=O)n2-c1ccccc1F` [Example 146, 2-(Tetrahydropyran-4-ylamino)-4-(4-fluoro-2-methylphenyl)-8-(2-fluorophenyl)-8H-pyrido[2,3-d]pyrimidin-7-one], the melting point fell in the range of 211 to 212 °C.
Regarding `CCNc1nc(-c2ccc(F)cc2C)c2ccc(=O)n(-c3c(F)cccc3F)c2n1` [Example 147, 2-Ethylamino-4-(4-fluoro-2-methylphenyl)-8-(2,6-difluorophenyl)-8H-pyrido[2,3-d]pyrimidin-7-one], the melting point lay within 195 to 196 °C.
For the compound `Cc1cc(F)ccc1-c1nc(NC2CCCCC2)nc2c1ccc(=O)n2-c1c(F)cccc1F` [Example 148, 2-Cyclohexylamino-4-(4-fluoro-2-methylphenyl)-8-(2,6-difluorophenyl)-8H-pyrido[2,3-d]pyrimidin-7-one], the melting point was 218 to 219 °C.
Under `Cc1cc(F)ccc1-c1nc(NC2CCOCC2)nc2c1ccc(=O)n2-c1c(F)cccc1F` [Example 149, 2-(Tetrahydropyran-4-ylamino)-4-(4-fluoro-2-methylphenyl)-8-(2,6-difluorophenyl)-8H-pyrido[2,3-d]pyrimidin-7-one] stands 231 to 232 °C; under `Cc1cc(F)ccc1-c1nc(NCC(F)(F)F)nc2c1ccc(=O)n2-c1ccccc1F` [Example 150, 2-(2,2,2-Trifluoroethylamino)-4-(4-fluoro-2-methylphenyl)-8-(2-fluorophenyl)-8H-pyrido[2,3-d]pyrimidin-7-one], 187 to 188 °C.
Under `Cc1cc(F)ccc1-c1nc(N[C@H]2CC[C@H](O)CC2)nc2c1ccc(=O)n2-c1ccccc1F` [Example 151, trans-2-(4-Hydroxycyclohexylamino)-4-(4-fluoro-2-methylphenyl)-8-(2-fluorophenyl)-8H-pyrido[2,3-d]pyrimidin-7-one] stands 148 to 151 °C; under `Cc1cc(F)ccc1-c1nc(NC(C)(CO)CO)nc2c1ccc(=O)n2-c1ccccc1F` [Example 152, 2-(1-hydroxymethyl-1-methyl-2-hydroxyethylamino)-4-(4-fluoro-2-methylphenyl)-8-(2-fluorophenyl)-8H-pyrido[2,3-d]pyrimidin-7-one], 160 to 162 °C; under `Cc1cc(F)ccc1-c1nc(NCC(F)(F)F)nc2c1ccc(=O)n2-c1c(F)cccc1F` [Example 153, 2-(2,2,2-Trifluoroethylamino)-4-(4-fluoro-2-methylphenyl)-8-(2,6-difluorophenyl)-8H-pyrido[2,3-d]pyrimidin-7-one], 195 to 196 °C.
With `Cc1cc(F)ccc1-c1nc(NC(C)(CO)CO)nc2c1ccc(=O)n2-c1c(F)cccc1F` [Example 154, 2-(1-hydroxymethyl-1-methyl-2-hydroxyethylamino)-4-(4-fluoro-2-methylphenyl)-8-(2,6-difluorophenyl)-8H-pyrido[2,3-d]pyrimidin-7-one], the melting point is 158 to 160 °C.
Under `Cc1cc(F)ccc1-c1nc(N[C@H]2CC[C@H](O)CC2)nc2c1ccc(=O)n2-c1c(F)cccc1F` [Example 155, trans-2-(4-Hydroxycyclohexylamino)-4-(4-fluoro-2-methylphenyl)-8-(2,6-difluorophenyl)-8H-pyrido[2,3-d]pyrimidin-7-one] stands 158 to 160 °C.
Under `CCOc1nc(-c2ccc(F)cc2C)c2ccc(=O)n(-c3ccccc3F)c2n1` [Example 156, 2-Ethoxy-4-(4-fluoro-2-methylphenyl)-8-(2-fluorophenyl)-8H-pyrido[2,3-d]pyrimidin-7-one] stands 137 to 139 °C.
Under `CCNC(=O)NCCNc1nc(-c2ccc(F)cc2C)c2ccc(=O)n(-c3c(F)cccc3F)c2n1` [Example 158, 1-[2-[8-(2,6-Difluorophenyl)-4-(4-fluoro-2-methylphenyl)-7-oxo-7,8-dihydro-pyrido[2,3-d]pyrimidin-2-ylamino]ethyl]-3-ethylurea] stands 130 to 133 °C; under `Cc1cc(F)ccc1-c1nc(NCCNC(=O)Nc2ccccc2)nc2c1ccc(=O)n2-c1c(F)cccc1F` [Example 159], 142 to 148 °C; under `Cc1cc(F)ccc1-c1nc(NCCNC(=O)NC2CCCCC2)nc2c1ccc(=O)n2-c1c(F)cccc1F` [Example 160, 1-[2-[8-(2,6-Difluorophenyl)-4-(4-fluoro-2-methylphenyl)-7-oxo-7,8-dihydro-pyrido[2,3-d]pyrimidin-2-ylamino]ethyl]-3-cyclohexylurea], 178 to 183 °C.
